Measurements as given in patent US20160129080A1, “TREATMENT OF POLYPOIDAL CHROIDAL VASCULOPATHY” (priority 2013, published 2016).

B1: ranibizumab (antibody, chains of the INN, looked up, V domains shown)
VH: EVQLVESGGGLVQPGGSLRLSCAASGYDFTHYGMNWVRQAPGKGLEWVGWINTYTGEPTYAADFKRRFTFSLDTSKSTAYLQMNSLRAEDTAVYYCAKYPYYYGTSHWYFDVWGQGTLVTVSS
VL: DIQLTQSPSSLSASVGDRVTITCSASQDISNYLNWYQQKPGKAPKVLIYFTSSLHSGVPSRFSGSGSGTDFTLTISSLQPEDFATYYCQQYSTVPWTFGQGTKVEIK
modifications: Fab
notes: anti-VEGF antibody antagonist approved for human use

Assays:
[1] = Best corrected visual acuity change, randomized three-group patient study; format: in vivo, human; details: month 6; mean±SD; ranibizumab 0.5 mg intravitreal
Procedure: (§1) Sixty-one patients were randomized to three treatment groups: verteporfin photodynamic therapy, ranibizumab 0.5 mg, or the combination. Patients were administered with verteporfin photodynamic therapy/placebo and initiated with three consecutive monthly intravitreal ranibizumab/sham injections starting from day 1 (first photodynamic therapy session). Indocyanine green angiography was performed at baseline and at months 3, 4, 5, and 6. Fluorescein angiography was performed to assess the presence of leakage and to obtain fundus photographs at the same times. Changes in central retinal thickness were determined by optical coherence tomography. Treatment with ranibizumab/sham injections was repeated at months 3-5 on an as-needed basis.
(§2) The primary endpoint was the proportion of patients with indocyanine green angiography-assessed complete regression of polyps at month 6. Secondary endpoints included mean change in best corrected visual acuity at month 6 and safety.

[2] = Indocyanine green angiography-assessed complete regression of polyps, randomized three-group patient study; format: in vivo, human; details: month 6, 61 patients randomized to three groups, ranibizumab 0.5 mg intravitreal
Procedure: as §1, §2

Molecule	Mean change±standard deviation in best corrected visual acuity [1] [letters]	proportion of patients with complete polyp regression [2] [%]
verteporfin	7.5±10.6	71.4
B1	9.2±12.4	28.6
